From patent US10183950B2, “Thienopyrimidine inhibitors of atypical protein kinase C” (Cancer Research Technology Limited, priority 2011, dated 2019)

biological target: T1, kinase-domain human PKCι (Homo sapiens, UniProt P41743); test: PKCι IC50 IMAP fluorescence polarisation assay, kinase-domain enzyme; format: biochemical; details: kinase domain PKCi at 2 μM ATP; read-out: IC50 in IMAP assay against kinase domain PKCi
T1 construct: Recombinant, kinase-domain human PKCι is expressed and purified in-house; made in house
T1 sequence (P41743 254-522 limits assumed): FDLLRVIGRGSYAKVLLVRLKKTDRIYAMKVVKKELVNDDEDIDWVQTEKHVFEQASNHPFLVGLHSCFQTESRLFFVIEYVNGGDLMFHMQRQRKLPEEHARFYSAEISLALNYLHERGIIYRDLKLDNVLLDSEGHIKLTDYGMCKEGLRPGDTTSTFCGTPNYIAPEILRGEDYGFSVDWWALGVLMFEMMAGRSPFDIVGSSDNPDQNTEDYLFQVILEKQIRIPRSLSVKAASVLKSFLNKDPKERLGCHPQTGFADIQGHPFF
Experimental: Assays are based on the ability of PKCι to phosphorylate a commercially available peptide substrate in vitro. […] Recombinant, full-length human PKCι expressed in Sf21 insect cells is also commercially available. Recombinant, kinase-domain human PKCι is expressed and purified in-house.
The procedure below explains how dose response curves for inhibitors of PKCι are obtained.
Compounds to be tested are dissolved in 100% DMSO. […] 1 μl is plated into 384 well black low-binding flat bottomed assay plates which are used immediately. Dilutions and additions of compound to assay plates are carried out using Matrix WellMate® and Matrix PlateMate® Plus liquid handling systems.
The final concentration of peptide substrate in the assay is 100 nM. […] Relevant controls are included, namely no compound and no enzyme. […] The reaction is allowed to incubate for 60 minutes at room temperature, before the reaction is stopped and developed by the addition of 20 μl IMAP™ development reagent (Molecular Devices). IMAP development reagent consists of 0.25% (v/v) IMAP progressive binding reagent, 17% (v/v) IMAP progressive binding buffer A and 3% (v/v) IMAP progressive binding buffer B. The plates are then incubated for 2 hours at room temperature before being read using an appropriate plate reader, for example a Molecular Devices HT Analyst or a BMG Pherastar.

| IC50 [µM] | Compound |
| --- | --- |
| 10 to 40 | C[C@@H](N)CNc1nc(-c2ccncc2)nc2cc(C(C)(C)C)sc12 [compound 308, (R)-N*1*-(6-tert-Butyl-2-pyridin-4-yl-thieno[3,2-d]pyrimidin-4-yl)-propane-1,2-diamine] |
| 10 to 40 | C[C@@H](N)CNc1nc(-c2ccncc2)nc2c1sc1ncccc12 [compound 379, (R)-N*1*-(2-Pyridin-4-yl-pyrido[3′,2′:4,5]thieno[3,2-d]pyrimidin-4-yl)-propane-1,2-diamine] |
| 10 to 40 | C[C@H](N)CNc1nc(-c2ccncc2)nc2cc(C(C)(C)C)sc12 [compound 307, (S)-N*1*-(6-tert-Butyl-2-pyridin-4-yl-thieno[3,2-d]pyrimidin-4-yl)-propane-1,2-diamine] |
| 1 to 10 | NCCNc1nc(-c2ccncc2)nc2c1sc1ncccc12 [compound 375, N*1*-(2-Pyridin-4-yl-pyrido[3′,2′:4,5]thieno[3,2-d]pyrimidin-4-yl)-ethane-1,2-diamine] |
| 1 to 10 | CN(CCN)c1nc(-c2ccncc2)nc2c1sc1cccc(Cl)c12 [compound 385, N*1*-(9-Chloro-2-pyridin-4-yl-benzo[4,5]thieno[3,2-d]pyrimidin-4-yl)-N*1*- methyl-ethane-1,2-diamine] |
| 1 to 10 | Cc1csc2c(N[C@@H]3CCNC3)nc(-c3ccncc3)nc12 [compound 312, (7-Methyl-2-pyridin-4-yl-thieno[3,2-d]pyrimidin-4-yl)-(R)-pyrrolidin-3-yl-amine] |

same assay, conditions: kinase domain PKCi at 2 μM ATP; read-out: IC50 in IMAP assay against kinase domain PKCi (Activity)

| Compound | IC50 [µM] |
| --- | --- |
| NCCNc1nc(-c2ccncc2F)nc2sc3c(c12)CCCC3 [compound 97, N*1*-[2-(3-fluoro-pyridin-4-yl)-5,6,7,8-tetrahydro-benzo[4,5]thieno [2,3-d]pyrimidin-4-yl]-ethane-1,2-diamine] | 1 to 10 |
| Cc1c(C(N)=O)sc2nc(-c3ccncc3)nc(NCCN)c12 [compound 39, 4-(2-Amino-ethylamino)-5-methyl-2-pyridin-4-yl-thieno[2,3-d]pyrimidine-6-carboxylic acid amide] | 0.1 to 1 |
| Brc1ccc(CN2CCN(c3nc(-c4ccncc4)nc4sc5c(c34)CCCC5)CC2)cn1 [compound 128, 4-[4-(6-Bromo-pyridin-3-ylmethyl)-piperazin-1-yl]-2-pyridin-4-yl-5,6,7,8-tetrahydro-benzo[4,5]thieno[2,3-d]pyrimidine] | 10 to 40 |
| CC(C)CN1CCN(c2nc(-c3ccncc3)nc3sc4c(c23)CCCC4)CC1 [compound 134, 4-(4-Isobutyl-piperazin-1-yl)-2-pyridin-4-yl-5,6,7,8-tetrahydro-benzo[4,5]thieno[2,3-d]pyrimidine] | 10 to 40 |
| CCCN1CCN(c2nc(-c3ccncc3)nc3sc4c(c23)CCCC4)CC1 [compound 133, 4-(4-Propyl-piperazin-1-yl)-2-pyridin-4-yl-5,6,7,8-tetrahydro-benzo[4,5]thieno[2,3-d]pyrimidine] | 10 to 40 |
| CCc1cc2c(NCCN)nc(-c3ccncc3)nc2s1 [compound 33, N*1*-(6-Ethyl-2-pyridin-4-yl-thieno[2,3-d]pyrimidin-4-yl)-ethane-1,2-diamine] | 1 to 10 |
| Brc1ccc(-c2csc3nc(-c4ccncc4)nc(N4CCCNCC4)c23)cc1 [compound 93, 5-(4-Bromo-phenyl)-4-[1,4]diazepan-1-yl-2-pyridin-4-yl-thieno[2,3-d]pyrimidine] | 1 to 10 |
| c1cc(-c2nc(N3C[C@@H]4C[C@H]3CN4)c3c4c(sc3n2)CCCC4)ccn1 [compound 18, 4-(1S,4S)-2,5-Diaza-bicyclo[2.2.1]hept-2-yl-2-pyridin-4-yl-5,6,7,8-tetrahydro-benzo[4,5]thieno[2,3-d]pyrimidine] | 0.1 to 1 |
| Cc1n[nH]c(C)c1-c1nc(N[C@@H]2CCNC2)c2c3c(sc2n1)CCCC3 [compound 194, [2-(3,5-Dimethyl-1H-pyrazol-4-yl)-5,6,7,8-tetrahydro-benzo[4,5]thieno[2,3-d]pyrimidin-4-yl]-(R)-pyrrolidin-3-yl-amine] | 0.1 to 1 |
| N[C@H](COc1nc(-c2ccncc2)nc2sc3c(c12)CCCC3)C1CCCCC1 [compound 156, (S)-1-cyclohexyl-2-(2-pyridin-4-yl-5,6,7,8-tetrahydro-benzo[4,5]thieno[2,3-d]pyrimidin-4-yloxy)-ethylamine] | 1 to 10 |

Now from value to molecule:

| IC50 [µM] | Compound |
| --- | --- |
| 10 to 40 | c1ccc(CCN2CCN(c3nc(-c4ccncc4)nc4sc5c(c34)CCCC5)CC2)cc1 [compound 132, 4-(4-Phenethyl-piperazin-1-yl)-2-pyridin-4-yl-5,6,7,8-tetrahydro-benzo[4,5]thieno[2,3-d]pyrimidine] |
| 0.1 to 1 | CC(C)Cc1csc2nc(-c3ccncc3)nc(NC[C@H](C)N)c12 [compound 29, (S)-N*1*-(5-Isobutyl-2-pyridin-4-yl-thieno[2,3-d]pyrimidin-4-yl)-propane-1,2-diamine] |
| 0.1 to 1 | CC1CCc2c(sc3nc(-c4ccncc4)nc(NCCN)c23)C1 (centres unmarked) [compound 21, N*1*-(7-Methyl-2-pyridin-4-yl-5,6,7,8-tetrahydro-benzo[4,5]thieno[2,3-d]pyrimidin-4-yl)-ethane-1,2-diamine] |
| 0.1 to 1 | N[C@H](CNc1nc(-c2ccncc2)nc2sc3c(c12)CCCCC3)Cc1ccccc1 [compound 87, (S)-3-Phenyl-N*1*-(2-pyridin-4-yl-6,7,8,9-tetrahydro-5H-10-thia-1,3-diaza-benzo[a]azulen-4-yl)-propane-1,2-diamine] |
| 10 to 40 | CCc1c(C)sc2nc(-c3ccncc3)nc(NC[C@@H](C)N)c12 [compound 32, (R)-N*1*-(5-Ethyl-6-methyl-2-pyridin-4-yl-thieno[2,3-d]pyrimidin-4-yl)-propane-1,2-diamine] |
| 1 to 10 | CCc1c(C)sc2nc(-c3ccncc3)nc(NC[C@H](C)N)c12 [compound 31, (S)-N*1*-(5-Ethyl-6-methyl-2-pyridin-4-yl-thieno[2,3-d]pyrimidin-4-yl)-propane-1,2-diamine] |
| 0.1 to 1 | NCCNc1nc(-c2ccncc2)nc2sc3c(c12)CCCCC3 [compound 84, N*1*-(2-pyridin-4-yl-6,7,8,9-tetrahydro-5H-10-thia-1,3-diaza-benzo[a]azulen-4-yl)-ethane-1,2-diamine] |
| 0.1 to 1 | CNCCNc1nc(-c2ccncc2)nc2sc3c(c12)CCCC3 [compound 13, N-Methyl-N′-(2-pyridin-4-yl-5,6,7,8-tetrahydro-benzo[4,5]thieno[2,3-d]pyrimidin-4-yl)-ethane-1,2-diamine] |
| 0.1 to 1 | N[C@H](CNc1nc(-c2ccncc2)nc2sc3c(c12)CCCCCC3)Cc1ccccc1 [compound 76, (S)-3-Phenyl-N*1*-(2-pyridin-4-yl-5,6,7,8,9,10-hexahydro-11-thia-1,3-diaza-cycloocta[a]inden-4-yl)-propane-1,2-diamine] |
| 1 to 10 | CN(C)CCNc1nc(-c2ccncc2)nc2sc3c(c12)CCCC3 [compound 1, N,N-dimethyl-N′-(2-pyridin-4-yl-5,6,7,8-tetrahydro-benzo[4,5]thieno[2,3-d]pyrimidin-4-yl)-ethane-1,2-diamine] |
| 0.1 to 1 | CC1CCc2c(sc3nc(-c4ccncc4)nc(NC[C@@H](N)Cc4ccccc4)c23)C1 (stereo partly drawn) [compound 69, (S)-N*1*-(7-Methyl-2-pyridin-4-yl-5,6,7,8-tetrahydro-benzo[4,5]thieno[2,3-d]pyrimidin-4-yl)-3-phenyl-propane-1,2-diamine] |
| 10 to 40 | Clc1ccccc1CN1CCN(c2nc(-c3ccncc3)nc3sc4c(c23)CCCC4)CC1 [compound 123, 4-[4-(2-Chloro-benzyl)-piperazin-1-yl]-2-pyridin-4-yl-5,6,7,8-tetrahydro-benzo[4,5]thieno[2,3-d]pyrimidine] |
| 10 to 40 | N[C@H]1C[C@@H]1Nc1nc(-c2ccncc2)nc2sc3c(c12)CCCC3 [compound 11, (1S,2S)-N-(2-Pyridin-4-yl-5,6,7,8-tetrahydro-benzo[4,5]thieno[2,3-d]pyrimidin-4-yl)-cyclopropane-1,2-diamine] |
| 10 to 40 | N[C@@H](COc1nc(-c2ccncc2)nc2sc3c(c12)CCCC3)Cc1ccc2ccccc2c1 [compound 172, (R)-1-Naphthalen-2-ylmethyl-2-(2-pyridin-4-yl-5,6,7,8-tetrahydro-benzo[4,5]thieno[2,3-d]pyrimidin-4-yloxy)-ethylamine] |
| 1 to 10 | CSCC[C@@H](N)CNc1nc(-c2ccncc2)nc2sc3c(c12)CCCC3 [compound 6, (R)-4-Methylsulfanyl-N*1*- (2-pyridin-4-yl-5,6,7,8-tetrahydro-benzo[4,5]thieno[2,3-d]pyrimidin-4-yl)-butane-1,2-diamine] |
| 1 to 10 | N[C@H](COc1nc(-c2ccncc2)nc2sc3c(c12)CCCC3)CC1CCCCC1 [compound 157, (S)-2-Cyclohexyl-1-(2-pyridin-4-yl-5,6,7,8-tetrahydro-benzo[4,5]thieno[2,3-d]pyrimidin-4-yloxymethyl)-ethylamine] |
